The source of these data is patent US9603364B2 (Dow AgroSciences LLC, priority 2013, dated 2017).

What all share (experiment): General post-emergent herbicidal activity, foliar application
Holding throughout (assay type): in vivo

The test system of experiment [1] is Oryza sativa L. (rice). The settings on record: Oryza sativa, 336 h, scored after 14 days, read-out: % Visual Growth Reduction ORYSA; for plant injury at 70 g/ha: 70 g ai/ha; for plant injury at 140 g/ha: 140 g ai/ha; for plant injury at 280 g/ha: 280 g ai/ha. As for the experimental part:
(§1) A weighed amount, determined by the highest rate to be tested, of each test compound was placed in a 25 mL glass vial and was dissolved in 4 mL of a 97:3 v/v (volume/volume) mixture of acetone and dimethyl sulfoxide to obtain concentrated stock solutions which will be referred to as General Purpose Solvent. […] The concentrated stock solutions obtained were diluted with 20 mL of an aqueous mixture containing water, General Purpose Solvent, isopropyl alcohol, Atplus 411F crop oil concentrate, and Triton X-155 surfactant in a 46:42:12:1.0:0.02 v/v ratio to obtain spray solutions containing the highest application rates. Additional application rates were obtained by serial dilution of 12 mL of the high rate solution into a solution containing 2 mL of 97:3 v/v (volume/volume) mixture of acetone and dimethyl sulfoxide and 10 mL of an aqueous mixture containing water, General Purpose Solvent, isopropyl alcohol, Atplus 411F crop oil concentrate, and Triton X-155 surfactant in a 46:42:12:1.0:0.02 v/v ratio to obtain 1/2×, 1/4×, 1/8× and 1/16× rates of the high rate. […] Control plants were sprayed in the same manner with the solvent blank.
(§2) The treated plants and control plants were placed in a greenhouse as described above and watered by sub-irrigation to prevent wash-off of the test compounds. After 14 days, the condition of the test plants as compared with that of the untreated plants was determined visually and scored on a scale of 0 to 100 percent where 0 corresponds to no injury and 100 corresponds to complete kill.

Experiment [2] has as its system Zea mays L. (corn). The settings on record: 336 h, scored after 14 days, read-out: % Visual Growth Reduction ZEAMX; for plant injury at 70 g/ha: 70 g ai/ha; for plant injury at 140 g/ha: 140 g ai/ha; for plant injury at 280 g/ha: 280 g ai/ha. On the procedure:
as §1, §2

Experiment [3] concerns Echinochloa crus-galli (L.) Beauv. (barnyardgrass). The settings on record: for pest or weed control at 70 g/ha: 70 g ai/ha; for pest or weed control at 140 g/ha: 140 g ai/ha; for pest or weed control at 280 g/ha: 280 g ai/ha; for GR80 Value ECHCG: calculated by probit analysis, dose for 80% visual injury, may be extrapolated. As for the experimental part: as §1, §2
(§3) By applying the well-accepted probit analysis as described by J. Berkson in […], 48, 565 (1953) and by D. Finney in “Probit Analysis” Cambridge University Press (1952), the dose response data gathered as expressed above can be used to calculate GR20, GR50 and GR80 values, which are defined as growth reduction factors that correspond to the effective dose of herbicide required to kill or control 20 percent, 50 percent or 80 percent, respectively, of a target plant. Data not expressed in Table A may have been used to calculate some of the GR80 values in Table B. In some cases, the GR80 values may be extrapolations calculated based on the slope of the dose response curve for individual compounds listed in Table B.

The test system of experiment [4] is Chenopodium album L. (lambsquarters, common). The settings on record: for pest or weed control at 70 g/ha: 70 g ai/ha; for pest or weed control at 140 g/ha: 140 g ai/ha; for pest or weed control at 280 g/ha: 280 g ai/ha; for GR80 Value CHEAL: calculated by probit analysis, dose for 80% visual injury, may be extrapolated. On the procedure:
as §1, §2, §3

The subject of experiment [5] is Helianthus annuus L. (sunflower, common). Conditions: for pest or weed control at 70 g/ha: 70 g ai/ha; for pest or weed control at 140 g/ha: 140 g ai/ha; for pest or weed control at 280 g/ha: 280 g ai/ha; for GR80 Value HELAN: calculated by probit analysis, dose for 80% visual injury, may be extrapolated. On the procedure:
as §1, §2, §3

Experiment [6] relates to Euphorbia heterophylla L. (poinsettia, wild). Conditions: for pest or weed control at 70 g/ha: 70 g ai/ha; for pest or weed control at 140 g/ha: 140 g ai/ha; for pest or weed control at 280 g/ha: 280 g ai/ha; for GR80 Value EPHHL: calculated by probit analysis, dose for 80% visual injury, may be extrapolated. As for the experimental part:
as §1, §2, §3

Experiment [7] relates to Amaranthus retroflexus L. (pigweed, redroot). The settings on record: for pest or weed control at 70 g/ha: 70 g ai/ha; for pest or weed control at 140 g/ha: 140 g ai/ha; for pest or weed control at 280 g/ha: 280 g ai/ha; for GR80 Value AMARE: calculated by probit analysis, dose for 80% visual injury, may be extrapolated. As for the experimental part: as §1, §2, §3
In experiment [8] the test system is Viola tricolor L. (pansy). The settings on record: for pest or weed control at 70 g/ha: 70 g ai/ha; for pest or weed control at 140 g/ha: 140 g ai/ha; for GR80 Value VIOTR: calculated by probit analysis, dose for 80% visual injury, may be extrapolated; for pest or weed control at 280 g/ha: 280 g ai/ha. On the procedure:
as §1, §2, §3

Where [9] appears, read: Echinochloa crus-galli, 336 h, foliar post-emergent, scored after 14 days, read-out: % Visual Growth Reduction ECHCG.
Setting [10] is: Chenopodium album, 336 h, foliar post-emergent, scored after 14 days, read-out: % Visual Growth Reduction CHEAL.
Where [11] appears, read: Helianthus annuus, 336 h, foliar post-emergent, scored after 14 days, read-out: % Visual Growth Reduction HELAN.
Setting [12] is: Euphorbia heterophylla, 336 h, foliar post-emergent, scored after 14 days, read-out: % Visual Growth Reduction EPHHL.
Setting [13] is: Amaranthus retroflexus, 336 h, foliar post-emergent, scored after 14 days, read-out: % Visual Growth Reduction AMARE.
[14] abbreviates: Viola tricolor, 336 h, foliar post-emergent, scored after 14 days, read-out: % Visual Growth Reduction VIOTR.

Some results are limits rather than exact numbers.

Consider `Nc1cc(C(F)F)nc(C(=O)O)c1Cl` [Compound F27], for which the plant injury at 70 g/ha in experiment [1] stood at 13%; in experiment [2], 50%. The plant injury at 140 g/ha in experiment [1] came out at 15%; in experiment [2], 60%. Besides, the values for the plant injury at 280 g/ha in experiment [1] and in experiment [2] were 20% and 60%, respectively. For the same compound, the plant injury at 35 g/ha in experiment [2] (35 g ai/ha) was determined as 20%. For the same compound, the pest or weed control at 35 g/ha worked out at 0% in experiment [3] (Echinochloa crus-galli, 336 h, 35 g ai/ha, foliar post-emergent, scored after 14 days, read-out: % Visual Growth Reduction ECHCG); 100% in experiment [4] (Chenopodium album, 336 h, 35 g ai/ha, foliar post-emergent, scored after 14 days, read-out: % Visual Growth Reduction CHEAL); 90% in experiment [5] (Helianthus annuus, 336 h, 35 g ai/ha, foliar post-emergent, scored after 14 days, read-out: % Visual Growth Reduction HELAN); 90% in experiment [6] (Euphorbia heterophylla, 336 h, 35 g ai/ha, foliar post-emergent, scored after 14 days, read-out: % Visual Growth Reduction EPHHL); 90% in experiment [7] (Amaranthus retroflexus, 336 h, 35 g ai/ha, foliar post-emergent, scored after 14 days, read-out: % Visual Growth Reduction AMARE); 80% in experiment [8] (Viola tricolor, 336 h, 35 g ai/ha, foliar post-emergent, scored after 14 days, read-out: % Visual Growth Reduction VIOTR). Further, the pest or weed control at 70 g/ha in experiment [3] (setting [9]) came to 65%; in experiment [4] (setting [10]), 100%; in experiment [5] (setting [11]) it was 100%; in experiment [6] (setting [12]), 100%; in experiment [7] (setting [13]), 90%; in experiment [8] (setting [14]) it was 100%. In addition, the pest or weed control at 140 g/ha in experiment [3] (setting [9]) was 80%; in experiment [4] (setting [10]), 100%; in experiment [5] (setting [11]), 100%; in experiment [6] (setting [12]), 100%; in experiment [7] (setting [13]), 100%; in experiment [8] (setting [14]), 100%. For the same compound, the pest or weed control at 280 g/ha in experiment [3] (setting [9]) worked out at 80%; in experiment [4] (setting [10]), 100%; in experiment [5] (setting [11]), 100%; in experiment [6] (setting [12]) it was 100%; in experiment [7] (setting [13]), 100%. In experiment [3], the “GR80 Value ECHCG” value is recorded as 187 g ai/ha. The “GR80 Value CHEAL” value in experiment [4] is below 17.5 g ai/ha. Also, the “GR80 Value HELAN” value in experiment [5] is reported as below 17.5 g ai/ha. The “GR80 Value EPHHL” value in experiment [6] was below 17.5 g ai/ha. Besides, the “GR80 Value AMARE” value in experiment [7] is recorded as 17.5 g ai/ha. Further, in experiment [8], the “GR80 Value VIOTR” value is 59.2 g ai/ha.

For `COC(=O)c1nc(C(F)CF)cc(N)c1Cl` (stereo not drawn) [Compound F28, methyl 4-amino-3-chloro-6-(1,2-difluoroethyl)picolinate], the plant injury at 70 g/ha in experiment [1] was found to be 0%; in experiment [2], 10%. Further, the results for the plant injury at 140 g/ha in experiment [1] and in experiment [2] were 0% and 10%, respectively. The values for the plant injury at 280 g/ha in experiment [1] and in experiment [2] were 0% and 10%, respectively. Further, the pest or weed control at 70 g/ha in experiment [3] (setting [9]) worked out at 0%; in experiment [4] (setting [10]) it was 90%; in experiment [5] (setting [11]) it was 80%; in experiment [6] (setting [12]), 80%; in experiment [7] (setting [13]), 80%; in experiment [8] (setting [14]) it was 15%. The pest or weed control at 140 g/ha in experiment [3] (setting [9]) came out at 0%; in experiment [4] (setting [10]), 80%; in experiment [5] (setting [11]), 90%; in experiment [6] (setting [12]), 100%; in experiment [7] (setting [13]), 100%; in experiment [8] (setting [14]), 75%. Moreover, the pest or weed control at 280 g/ha came to 0% in experiment [3] (setting [9]); 90% in experiment [4] (setting [10]); 95% in experiment [5] (setting [11]); 100% in experiment [6] (setting [12]); 100% in experiment [7] (setting [13]); 90% in experiment [8] (setting [14]). In addition, in experiment [3], the “GR80 Value ECHCG” value is above 280 g ai/ha. For the same compound, the “GR80 Value CHEAL” value in experiment [4] was 17.5 g ai/ha. For the same compound, the “GR80 Value HELAN” value in experiment [5] is 52.9 g ai/ha. For the same compound, the “GR80 Value EPHHL” value in experiment [6] was 73 g ai/ha. Also, the “GR80 Value AMARE” value in experiment [7] is on record as 66.4 g ai/ha. The “GR80 Value VIOTR” value in experiment [8] is given as 197 g ai/ha.

For the compound `C=C(F)c1nc(C(=O)OC)c(Cl)c(N)c1F` [Compound F22, methyl 4-amino-3-chloro-5-fluoro-6-(1-fluorovinyl)picolinate], the plant injury at 140 g/ha in experiment [1] and in experiment [2] was 0% throughout. For the same compound, the plant injury at 280 g/ha in experiment [1] and in experiment [2] was 0% each time. Moreover, the pest or weed control at 140 g/ha amounted to 0% in experiment [3] (setting [9]); 90% in experiment [4] (setting [10]); 80% in experiment [5] (setting [11]); 50% in experiment [6] (setting [12]); 90% in experiment [7] (setting [13]); 10% in experiment [8] (setting [14]). The pest or weed control at 280 g/ha amounted to 0% in experiment [3] (setting [9]); 90% in experiment [4] (setting [10]); 80% in experiment [5] (setting [11]); 60% in experiment [6] (setting [12]); 90% in experiment [7] (setting [13]); 10% in experiment [8] (setting [14]).

`COC(=O)c1nc(CC(F)F)c(F)c(N)c1Cl` [Compound F2, methyl 4-amino-3-chloro-6-(2,2-difluoroethyl)-5-fluoropicolinate]: the plant injury at 140 g/ha in experiment [1] and in experiment [2] was 0% in each case. In addition, the pest or weed control at 140 g/ha came out at 0% in experiment [3] (setting [9]); 90% in experiment [4] (setting [10]); 80% in experiment [5] (setting [11]); 100% in experiment [6] (setting [12]); 100% in experiment [7] (setting [13]); 0% in experiment [8] (setting [14]). Besides, in experiment [3], the “GR80 Value ECHCG” value is given as above 140 g ai/ha. Further, the “GR80 Value CHEAL” value in experiment [4] is reported as 103 g ai/ha. Moreover, in experiment [5], the “GR80 Value HELAN” value was 80.8 g ai/ha. Moreover, in experiment [6], the “GR80 Value EPHHL” value is 114 g ai/ha. Also, the “GR80 Value AMARE” value in experiment [7] was 103 g ai/ha. Also, the “GR80 Value VIOTR” value in experiment [8] is given as above 140 g ai/ha.
